Where two headings read alike, the source gives them in different places.
Experiments:
[1] = test system: Amyotrophic Lateral Sclerosis (ALS); details: ALS patients; cited from earlier work
cortical neurons = test: Excitotoxicity protection in primary cortical cell cultures (MTT test); assay type: cell-based, rat; details: 6 hour incubation
Protocol: Sixteen-day-old embryos from Wistar rats were removed and the cortex dissected. […] After four days of culture, half of the medium was replaced by minimum essential medium supplemented with 5% horse serum and 2 mM glutamine. On the same day, 10 μM 5-fluoro-2-deoxyuridine, an antimitotic agent, was added. After 7 and 11 days of culture, half of the medium was replaced by conditioned medium composed of MEM supplemented with 5% horse serum and 2 mM glutamine; this medium was passed overnight on a layer of cortical astrocytes before use.
Toxicity was measured with an MTT test.

rat brain granular cells = details: for protection of brain granular cells: 6 hour incubation, MTT; for protective effect on neuron survival: neurons cotreated with PDE4 inhibitor, both excitotoxicity inducers (NMDA/serine and kainate), FIGS. 2 to 10
[2] = NMDA/serine treatment (20 μM NMDA + 10 μM D-serine)
[3] = kainate-induced toxicity (50 μM kainate)
[4] = NMDA/serine treatment (100 μM NMDA + 10 μM D-serine)

Row | Compound | improvement in the measures of muscular strength [1] | protective effect on cortical neurons (cortical neurons; [2]) | protective effect on cortical neurons (cortical neurons; [3]) | protection of brain granular cells (rat brain granular cells; [4]) | protection of brain granular cells (rat brain granular cells; [3]) | protective effect on neuron survival (rat brain granular cells)
1 | Nc1nc2ccc(OC(F)(F)F)cc2s1 [Riluzole] | does not provide improvement |  |  |  |  | 
2 | CCOC(=O)c1cnc2c(cnn2CC)c1NN=C(C)C [etazolate] |  | 33% | 25% | 60% | 57% | dose-dependent protective effect
3 | CC(=O)CCCCn1c(=O)c2c(ncn2C)n(C)c1=O [pentoxifylline] |  | 50% | 66% | 43% | 33% | dose-dependent protective effect
